Results taken from ChEMBL document CHEMBL3877305, “Improved Potency of Indole-Based NorA Efflux Pump Inhibitors: From Serendipity toward Rational Design and Development” (J Med Chem, 2017).
In brackets after ≈: the same amount, converted by molar mass.

Key:
[1] = molecular target: T1, Quinolone resistance protein NorA (Staphylococcus aureus) (UniProt P0A0J7); assay: Inhibition of Staphylococcus aureus 1199B NorA assessed as inhibition of ethidium bromide efflux at 50 uM measured after 5 mins by fluorometric method relative to control
T1 sequence (whole entry): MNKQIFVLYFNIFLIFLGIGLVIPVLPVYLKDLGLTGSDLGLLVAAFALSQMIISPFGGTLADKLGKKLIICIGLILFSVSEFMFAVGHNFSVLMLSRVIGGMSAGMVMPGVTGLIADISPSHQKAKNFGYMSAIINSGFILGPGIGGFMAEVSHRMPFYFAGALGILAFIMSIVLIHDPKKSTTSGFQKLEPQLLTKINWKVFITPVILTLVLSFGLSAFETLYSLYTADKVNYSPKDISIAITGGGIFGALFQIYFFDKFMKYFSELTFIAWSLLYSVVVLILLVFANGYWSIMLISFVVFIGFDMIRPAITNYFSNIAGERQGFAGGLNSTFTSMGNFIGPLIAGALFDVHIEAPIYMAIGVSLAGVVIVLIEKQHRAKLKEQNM

Staphylococcus aureus = assay: Antibacterial activity against Staphylococcus aureus 1199B by microdilution method; format: functional
[2] = molecular target: T2, Quinolone resistance protein NorA (Staphylococcus aureus, UniProt P0A0J7); assay: Inhibition of Staphylococcus aureus 1199B NorA assessed as inhibition of ethidium bromide efflux measured after 5 mins by fluorometric method
T2 sequence (P0A0J7 whole entry): T1 sequence (whole entry)

[3] = Dissociation constant, pKa of the compound; format: physicochemical
[4] = Solubility in D2O solution at 25 degC by 1H NMR analysis; format: physicochemical
[5] = Metabolic stability in human liver microsomes at 10 uM preincubated for 10 mins followed by NADPH addition measured after 30 mins by HPLC-MS/MS method; format: ADME; settings: 0.5 h
[6] = molecular target: T1, Quinolone resistance protein NorA (Staphylococcus aureus); assay: Inhibition of Staphylococcus aureus 1199B NorA assessed as potentiation of ciprofloxacin-induced antibacterial activity by checkerboard assay

`CCOC(=O)c1c(C)n(Cc2ccccc2)c2ccc(OCCCNCc3ccc(Oc4nnnn4-c4ccccc4)c(OC)c3)cc12` showed an inhibition [1] of 95 to 96.5%, an MIC (Staphylococcus aureus) greater than 100 µg/mL and an IC50 [2] of 1.8 to 1.82 µM. For the same compound, the pKa [3] was 7.21, the solubility [4] was less than 2 µM and the Stability [5] was “Stable”. It also gave a fractional inhibitory concentration index (FICI) [6] of 0.27.

Compound `CCOC(=O)c1c(C)n(Cc2ccccc2)c2ccc(OCCCNCc3nnnn3-c3ccccc3)cc12` has an inhibition [1] of 22.8%.

Compound `CCOC(=O)c1c(C)n(Cc2ccccc2)c2ccc(OCCN3CCN(CCCOc4ccccc4-c4ccccc4)CC3)cc12` has an inhibition [1] of 27.1%.

In the case of `CCOC(=O)c1c(C)n(Cc2ccccc2)c2ccc(OCCCCNCc3ccc(Oc4nnnn4-c4ccccc4)c(OC)c3)cc12`, the inhibition [1] is reported as 101%, the MIC (Staphylococcus aureus) is reported as greater than 100 µg/mL and the IC50 [2] is reported as 2.02 µM. The pKa [3] was 8.2, the solubility [4] was less than 2 µM and the Stability [5] was “Stable”. The fractional inhibitory concentration index (FICI) [6] was 0.25.

`COc1cc(CNCCO)ccc1Oc1nnnn1-c1ccccc1` gave an inhibition [1] of less than 10%.

Work on `CCOC(=O)c1c(C)n(Cc2ccccc2)c2ccc(OCCN3CCN(CCOc4ccccc4-c4ccccc4)CC3)cc12` yielded an inhibition [1] of 24.3 to 50%.

Compound `CCOC(=O)c1c(C)n(Cc2ccccc2)c2ccc(OCCCNCc3ccccc3)cc12` has an MIC (Staphylococcus aureus) greater than 100 µg/mL.

`CCOC(=O)c1c(C)n(Cc2ccccc2)c2ccc(OCCCN3CCN(CCCOc4ccccc4-c4ccccc4)CC3)cc12` showed an inhibition [1] of 12.1%.

Work on `CCOC(=O)c1c(C)n(Cc2ccccc2)c2ccc(OCC(O)CNCc3ccc(Oc4nnnn4-c4ccccc4)c(OC)c3)cc12` (stereo not given) yielded an inhibition [1] of 96.9%, an MIC (Staphylococcus aureus) greater than 100 µg/mL and an IC50 [2] of 4.93 µM. The fractional inhibitory concentration index (FICI) [6] was 0.13.

Work on `CCOC(=O)c1c(C)n(Cc2ccccc2)c2ccc(OCCCN3CCCCC3)cc12` yielded an MIC (Staphylococcus aureus) greater than 100 µg/mL and a fractional inhibitory concentration index (FICI) [6] of 0.28.

In the case of `CCOC(=O)c1c(C)n(Cc2ccccc2)c2ccc(OCCNCc3ccc(Oc4nnnn4-c4ccccc4)c(OC)c3)cc12`, the inhibition [1] is reported as 50.3%.

In the case of `CCOC(=O)c1c(C)n(Cc2ccccc2)c2ccc(OCCCN3CCN(CCCOc4ccc(F)cc4)CC3)cc12`, the inhibition [1] is reported as 53.7%.

For `CCOC(=O)c1c(C)n(Cc2ccccc2)c2ccc(OCCCN)cc12`, the MIC (Staphylococcus aureus) was greater than 100 µg/mL.

Compound `CCOC(=O)c1c(C)n(Cc2ccccc2)c2ccc(OCC(O)CNCC(O)COc3ccc4c(c3)c(C(=O)OCC)c(C)n4Cc3ccccc3)cc12` (stereo not given) has an inhibition [1] of 78 to 100% and an IC50 [2] of 19.9 µM.

With `OCCCN1CCN(CCCOc2ccccc2-c2ccccc2)CC1` the inhibition [1] was less than 10%.

Work on `CCOC(=O)c1c(C)n(Cc2ccccc2)c2ccc(OCCCNCc3ccc(F)c(OC)c3)cc12` yielded an inhibition [1] of 67%, an MIC (Staphylococcus aureus) of 6.3 µg/mL (≈ 12.5 µM) and an IC50 [2] of 3.83 µM.
